Results on 1 compound are retold here after PMC4368189, “YCZ-18 Is a New Brassinosteroid Biosynthesis Inhibitor” (PLoS ONE, 2015).

The target of the assay is T1, CYP90D1 (Arabidopsis thaliana, UniProt Q94IA6).
T1 construct: CYP90D1 mature protein, expressed in E. coli from pCold-GST; fusion cleaved with HRV3C protease
T1 sequence (Q94IA6 1-491): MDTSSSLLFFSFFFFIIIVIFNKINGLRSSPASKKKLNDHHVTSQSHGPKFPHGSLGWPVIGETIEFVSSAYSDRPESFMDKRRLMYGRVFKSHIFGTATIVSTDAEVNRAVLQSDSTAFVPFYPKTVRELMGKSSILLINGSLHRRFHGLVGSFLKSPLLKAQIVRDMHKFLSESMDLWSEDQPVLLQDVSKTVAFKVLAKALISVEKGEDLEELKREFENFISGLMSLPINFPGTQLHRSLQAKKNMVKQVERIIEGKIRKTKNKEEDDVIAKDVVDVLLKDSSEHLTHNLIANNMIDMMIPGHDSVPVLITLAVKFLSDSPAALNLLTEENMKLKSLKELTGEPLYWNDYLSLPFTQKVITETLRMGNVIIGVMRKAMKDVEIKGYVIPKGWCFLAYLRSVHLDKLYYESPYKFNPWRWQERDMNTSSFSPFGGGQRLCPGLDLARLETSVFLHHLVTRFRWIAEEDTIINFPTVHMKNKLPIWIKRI
Description: optical difference spectroscopy (type II binding spectrum) titration of purified recombinant CYP90D1.

Structures are written as SMILES. pKd: −log10 of the molar value.

On to `CCOc1ccccc1OCC1COC(Cn2cncn2)(c2ccc(Cl)cc2)O1` (stereo not shown) [YCZ-18], for which the negative logarithm of the Kd (pKd) was about 6.10.

As usually defined, the pKd is the Kd on a negative log10 scale, so that one unit is a factor of ten.
